These results are taken from ChEMBL document CHEMBL4033739, “Design and synthesis of novel δ opioid receptor agonists with an azatricyclodecane skeleton for improving blood-brain barrier penetration” (Bioorg Med Chem Lett, 2017).

For data set [1], the target named is T1, Mu-type opioid receptor (Homo sapiens, UniProt P35372). Nature of the data set: Displacement of [3H]DAMGO from human recombinant MOR expressed in CHO cell membranes. A general note: Displacement assays read how much labelled ligand stays bound in the presence of the test substance.
T1 sequence (P35372 whole entry): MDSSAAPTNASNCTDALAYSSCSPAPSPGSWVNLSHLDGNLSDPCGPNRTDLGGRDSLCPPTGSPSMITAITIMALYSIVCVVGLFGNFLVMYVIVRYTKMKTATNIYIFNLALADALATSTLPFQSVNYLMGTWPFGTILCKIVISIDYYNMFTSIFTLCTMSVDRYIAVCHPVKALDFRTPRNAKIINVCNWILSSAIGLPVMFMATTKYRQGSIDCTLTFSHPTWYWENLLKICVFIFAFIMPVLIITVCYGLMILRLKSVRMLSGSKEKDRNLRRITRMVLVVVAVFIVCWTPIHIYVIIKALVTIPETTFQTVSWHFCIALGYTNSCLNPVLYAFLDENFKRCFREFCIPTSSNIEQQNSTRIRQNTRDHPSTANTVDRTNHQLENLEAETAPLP
For data set [2], the species on record is Homo sapiens. Kind of data set: Selectivity index, ratio of Ki for human recombinant MOR expressed in CHO cell membranes to Ki for human recombinant DOR expressed in CHO cell membranes. The class given is cell-based.
For data set [3], the target named is T2, Delta-type opioid receptor (Homo sapiens, UniProt P41143). Nature of the data set: Agonist activity at human recombinant DOR expressed in CHO cells assessed as cAMP accumulation relative to SNC80. The class given is functional, cell-based.
T2 sequence (P41143 whole entry): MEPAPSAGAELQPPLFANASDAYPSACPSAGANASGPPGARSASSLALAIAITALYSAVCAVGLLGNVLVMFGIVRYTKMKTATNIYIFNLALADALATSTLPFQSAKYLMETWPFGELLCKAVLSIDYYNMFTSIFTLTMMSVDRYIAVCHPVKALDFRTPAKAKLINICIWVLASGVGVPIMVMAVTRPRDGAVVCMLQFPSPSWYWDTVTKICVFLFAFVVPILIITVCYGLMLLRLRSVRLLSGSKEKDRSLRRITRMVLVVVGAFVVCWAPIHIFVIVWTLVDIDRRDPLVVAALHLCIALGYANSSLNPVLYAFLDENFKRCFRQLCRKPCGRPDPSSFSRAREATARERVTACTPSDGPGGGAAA
The species entered for data set [4] is Homo sapiens. Nature of the data set: Selectivity index, ratio of Ki for human recombinant KOR expressed in CHO cell membranes to Ki for human recombinant DOR expressed in CHO cell membranes. The class given is cell-based.
Data set [5] addresses T2, Delta-type opioid receptor. Kind of data set: Displacement of [3H]DPDPE from human recombinant DOR expressed in CHO cell membranes.
For data set [6], the target named is T3, Kappa-type opioid receptor (Homo sapiens, UniProt P41145). Kind of data set: Displacement of [3H]U-69,593 from human recombinant KOR expressed in CHO cell membranes.
T3 sequence (P41145 whole entry): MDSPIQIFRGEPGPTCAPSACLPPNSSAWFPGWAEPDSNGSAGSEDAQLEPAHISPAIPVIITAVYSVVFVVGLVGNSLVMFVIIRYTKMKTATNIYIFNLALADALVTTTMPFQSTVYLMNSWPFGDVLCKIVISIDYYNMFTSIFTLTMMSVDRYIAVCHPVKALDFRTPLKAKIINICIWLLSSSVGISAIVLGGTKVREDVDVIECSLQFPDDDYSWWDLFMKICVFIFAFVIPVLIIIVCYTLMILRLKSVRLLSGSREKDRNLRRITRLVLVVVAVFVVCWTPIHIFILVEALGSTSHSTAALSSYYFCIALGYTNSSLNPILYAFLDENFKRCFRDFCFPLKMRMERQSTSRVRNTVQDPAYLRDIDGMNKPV
Data set [7] addresses T3, Kappa-type opioid receptor. Kind of data set: Agonist activity at human recombinant KOR expressed in CHO cells assessed as cAMP accumulation. Type of data set: functional, cell-based. (In general: Cyclic AMP is a second messenger, typically raised through Gs and lowered through Gi signalling.)
The target of data set [8] is T1, Mu-type opioid receptor. Kind of data set: Agonist activity at human recombinant MOR expressed in CHO cells assessed as cAMP accumulation at 10 uM relative to DAMGO. Type of data set: functional, cell-based.
Data set [9] addresses T2, Delta-type opioid receptor. Nature of the data set: Agonist activity at human recombinant DOR expressed in CHO cells assessed as cAMP accumulation. The class given is functional, cell-based.
Data set [10] has as its target T3, Kappa-type opioid receptor. Nature of the data set: Agonist activity at human recombinant KOR expressed in CHO cells assessed as cAMP accumulation relative to U-69,593. Type of data set: functional, cell-based.
The target of data set [11] is T1, Mu-type opioid receptor. Nature of the data set: Agonist activity at human recombinant MOR expressed in CHO cells assessed as cAMP accumulation. The class given is functional, cell-based.
Data set [12] has as its target T1, Mu-type opioid receptor. Kind of data set: Agonist activity at human recombinant MOR expressed in CHO cells assessed as cAMP accumulation relative to DAMGO. Type of data set: functional, cell-based.
In data set [13] the target is T3, Kappa-type opioid receptor. Kind of data set: Agonist activity at human recombinant KOR expressed in CHO cells assessed as cAMP accumulation at 10 uM relative to U-69,593. Type of data set: functional, cell-based.
A short description of data set [14]: Apparent permeability at 10 uM incubated for 60 mins by RBT-24 kit. The class given is physicochemical. The conditions noted are these: rat, not told.
For data set [15], the system named is Mus musculus. Kind of data set: Antinociceptive activity in sc dosed ICR mouse assessed as reduction in acetic acid-induced writhing response administered 20 mins before acetic acid injection and measured for 20 mins post acetic acid injection. The class given is functional. (Writhing tests count abdominal constrictions after an irritant is injected.)

A word on the Ki: it is the dissociation constant of the complex between target and ligand, obtained from inhibition or displacement. For orientation: Emax means the size of the effect at its maximum, as opposed to the concentration needed. As usually defined, the EC50 is the concentration at which the effect is half-maximal. As a reminder, the Papp is the rate of passage across a membrane or cell layer, normalised by area and donor concentration. As usually defined, the ED50 is the dose that gives a 50% effect, or the effect in half of the subjects.

As to `O=C(Nc1ccccc1)N1C[C@H]2CC34CCC1C2C31CCN(CC2CC2)C4Cc2ccc(O)cc21` (stereo partly drawn), the Ki stood at 0.545 nM in data set [1], 0.265 nM in [5] and 0.336 nM in data set [6]. In addition, the Ratio Ki in [2] turned out to be 2.1; in data set [4] it was 1.3. In addition, the figures for the maximum response (Emax) in data set [3], in data set [8] and in [10] were 42%, 6.2% and 44%, respectively. The EC50 worked out at 0.3 nM in [7] and 1.5 nM in data set [9].

Regarding `Oc1ccc2c(c1)C13CCN(CC4CC4)C(C2)C12CCC1C3[C@@H](CN1c1cnccn1)C2` (stereo partly drawn), the Ki in data set [1] was 0.813 nM; in data set [5], 0.356 nM; in [6], 0.479 nM. Moreover, the Ratio Ki in data set [2] is 2.3; in data set [4], 1.3. Further, the Emax in data set [3] was found to be 71%; in data set [8], 5.7%; in [10] it was 24%. The EC50 in data set [7] came to 0.2 nM; in data set [9], 0.43 nM.

For the compound `O=C(c1ccoc1)N1C[C@H]2CC34CCC1C2C31CCN(CC2CC2)C4Cc2ccc(O)cc21` (stereo partly drawn), the figures for the inhibition constant (Ki) in data set [1], in data set [5] and in data set [6] were 0.455 nM, 0.313 nM and 0.221 nM, respectively. For the same compound, the figures for the Ratio Ki in data set [2] and in [4] were 1.5 and 0.7, respectively. Besides, the Emax in data set [3] is 93%; in data set [12], 50%; in [10], 33%. In addition, the EC50 in [11] worked out at 155 nM; in data set [7], 1.4 nM; in data set [9], 0.23 nM.

For the compound `O=C(c1ccccn1)N1C[C@H]2CC34CCC1C2C31CCN(CC2CC2)C4Cc2ccc(O)cc21` (stereo partly drawn), the values for the Ki in data set [1], in data set [5] and in data set [6] were 0.726 nM, 0.458 nM and 0.564 nM, respectively. Besides, the Ratio Ki in data set [2] was 1.6; in data set [4], 1.2. The Emax was determined as 85% in [3], 6.5% in data set [8] and 18% in data set [13]. For the same compound, the EC50 in [9] worked out at 0.35 nM.

On to `Oc1ccc2c(c1)C13CCN(CC4CC4)C(C2)C12CCC1C3[C@@H](CN1CC1CCCCC1)C2` (stereo partly drawn), for which the values for the Ki in data set [1], in data set [5] and in data set [6] were 2.5 nM, 1.46 nM and 0.781 nM, respectively. Further, the Ratio Ki in data set [2] stood at 1.7; in data set [4], 0.5. In addition, the Emax in [3] turned out to be 82%; in data set [12], 17%; in data set [10], 45%. The EC50 in [11] was 21 nM; in data set [7], 5.7 nM; in data set [9] it was 1.7 nM.

For `Oc1ccc2c(c1)C13CCN(CC4CC4)C(C2)C12CCC1C3[C@@H](CN1c1ccccc1)C2` (stereo partly drawn), the results for the Ki in data set [1], in data set [5] and in data set [6] were 0.953 nM, 1.26 nM and 2.43 nM, respectively. For the same compound, the values for the Ratio Ki in [2] and in data set [4] were 0.8 and 1.9, respectively. In addition, the maximal effect (Emax) was determined as 82% in [3], 50% in data set [12] and 54% in data set [10]. Moreover, the EC50 in [11] turned out to be 10 nM; in data set [7], 8.1 nM; in data set [9], 4.7 nM.

Turning to `Oc1ccc2c(c1)C13CCN(CC4CC4)C(C2)C12CCC1C3[C@@H](CN1Cc1ccccc1)C2` (stereo partly drawn), the Ki in data set [1] amounted to 3.44 nM; in data set [5], 0.585 nM; in data set [6], 4.26 nM. The Ratio Ki in data set [2] is 5.9; in [4] it was 7.3. The Emax is 90% in data set [3], 18% in [8] and 36% in [10]. The 50% effective concentration (EC50) turned out to be 4.5 nM in [7] and 0.42 nM in data set [9].

For `O=C(c1ccccc1)N1C[C@H]2CC34CCC1C2C31CCN(CC2CC2)C4Cc2ccc(O)cc21` (stereo partly drawn), the Ki was 0.578 nM in data set [1], 0.211 nM in data set [5] and 0.362 nM in [6]. The values for the Ratio Ki in data set [2] and in [4] were 2.7 and 1.7, respectively. Also, the Emax turned out to be 93% in [3], 4.7% in data set [8] and 5.5% in [13]. Moreover, the Papp at 1 h, 10 µM in data set [14] came to 18.5 ×10⁻⁶ cm/s. Also, the ED50 in data set [15] was 1.15 mg/kg. Further, the EC50 in data set [9] is 0.31 nM.

Regarding `O=C(Oc1ccccc1)N1C[C@H]2CC34CCC1C2C31CCN(CC2CC2)C4Cc2ccc(O)cc21` (stereo partly drawn), the Ki in [1] came to 0.826 nM; in data set [5] it was 0.833 nM; in [6] it was 0.522 nM. Also, the Ratio Ki stood at 1 in data set [2] and 0.6 in data set [4]. Besides, the Emax is 92% in data set [3], 5.6% in data set [8] and 27% in data set [10]. For the same compound, the results for the EC50 in data set [7] and in data set [9] were 2.5 nM and 1.3 nM, respectively.
